Measured values from ChEMBL document CHEMBL1158050, “Minor sesquiterpenes with new carbon skeletons from the brown alga Dictyopteris divaricata” (J Nat Prod, 2006).

Legend:
Format in all cases: functional, cell-based
A549 = assay: Cytotoxicity against human A549 cells by MTT assay
Bel-7402 = assay: Cytotoxicity against human Bel-7402 cells by MTT assay
BGC-823 = assay: Cytotoxicity against human BGC-823 cells by MTT assay
HCT-8 = assay: Cytotoxicity against human HCT8 cells by MTT assay
MCF7 = assay: Cytotoxicity against human MCF7 cells by MTT assay

Measured: IC50

CC(=O)[C@H]1C[C@]2(O)[C@@H]([C@@H]1O)[C@H](C(C)C)CC[C@H]2C
> 10 µg/mL: A549 | Bel-7402 | BGC-823 | HCT-8 | MCF7

CC(=O)C1=C[C@@H]2[C@H](C(C)C)CC[C@@H](C)[C@]2(O)C1
> 10 µg/mL: A549 | Bel-7402 | BGC-823 | HCT-8 | MCF7

CC(=O)C1=C2[C@@H](C)CC[C@H](C(C)C)[C@@]2(O)CC1=O
> 10 µg/mL: A549 | Bel-7402 | BGC-823 | HCT-8 | MCF7

CC(=O)[C@@H]1C[C@]2(O)[C@@H]([C@H]1O)[C@H](C(C)C)CC[C@H]2C
> 10 µg/mL: A549 | Bel-7402 | BGC-823 | HCT-8 | MCF7

CC(C)[C@@H]1CC[C@@H](C)[C@@]2(O)C1=CC(=O)[C@@H]2C(C)O (stereo not given in full)
> 10 µg/mL: A549 | Bel-7402 | BGC-823 | HCT-8 | MCF7

CC(=O)C1=C2[C@H](C(C)C)CC[C@@H](C)[C@@]2(O)CC1=O
> 10 µg/mL: A549 | Bel-7402 | BGC-823 | HCT-8 | MCF7
